Measurements published in ChEMBL document CHEMBL1143570, “Architecture of the human urotensin II receptor: comparison of the binding domains of peptide and non-peptide urotensin II agonists” (J Med Chem, 2005).

Biological target: T1, Urotensin-2 receptor (Homo sapiens, UniProt Q9UKP6)
T1 sequence (Q9UKP6 whole entry): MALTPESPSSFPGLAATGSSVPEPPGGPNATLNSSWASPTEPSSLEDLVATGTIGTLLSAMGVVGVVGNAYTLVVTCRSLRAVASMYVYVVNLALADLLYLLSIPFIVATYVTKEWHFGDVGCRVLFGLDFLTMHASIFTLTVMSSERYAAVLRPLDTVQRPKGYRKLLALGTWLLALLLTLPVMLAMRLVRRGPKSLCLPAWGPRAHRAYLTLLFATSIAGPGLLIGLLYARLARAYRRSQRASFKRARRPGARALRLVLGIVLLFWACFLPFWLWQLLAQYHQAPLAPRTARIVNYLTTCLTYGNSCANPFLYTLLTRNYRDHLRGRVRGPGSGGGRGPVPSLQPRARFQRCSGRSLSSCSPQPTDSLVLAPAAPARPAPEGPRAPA
Assay: Agonist activity for human Urotensin 2 receptor
Format: functional

Compound | EC50
CN(C)CCC1(c2ccc(Cl)cc2)Cc2ccccc2C(=O)O1 (stereo not drawn) | 0.3 µM
CCN(CC)CCC1=C(c2ccccc2)NC(=O)N(C)C1c1ccc(Cl)cc1 (stereo not drawn) | 5 µM
CCN(CC)CCC1C(c2ccccc2)=Nc2ccccc2SC1c1ccc(Cl)cc1 (stereo not drawn) | 6.3 µM
